The values below are quoted from earlier work in PMC5603512, “Discovery, Semisynthesis, Antiparasitic and Cytotoxic Evaluation of 14-Membered Resorcylic Acid Lactones and Their Derivatives” (Scientific Reports, 2017).

Converted amounts (≈) assume the structure as drawn.

For data set [1], the system named is P. falciparum lines K1. As to conditions: cited from earlier work.
In data set [2] the test system is P. falciparum lines 3D7. Further details: method as in PMID 20429578, PMID 20429578. The conditions noted are these: line 3D7; read-out: IC50 against P. falciparum line 3D7; cited from earlier work.
In data set [3] the test system is P. falciparum lines Dd2. The conditions noted are these: line Dd2; read-out: IC50 against P. falciparum line Dd2; cited from earlier work.

For `COc1cc(O)c2c(c1)[C@H]1O[C@@H]1C[C@H](O)[C@H](O)C(=O)/C=C\C[C@H](C)OC2=O` [Hypothemycin], the “IC50 against P. falciparum line K1” value in data set [1] was 2.2 µg/mL (≈ 5.81 µM). What is called IC50 is the concentration that inhibits the measured activity by half. Regarding `COc1cc(O)c2c(c1)/C=C/C[C@H](O)[C@H](O)[C@H](O)CCC[C@H](C)OC2=O` [Paecilomycin F, paecilomycin F], the IC50 in data set [2] was 1.1 µM; in data set [3], 1.7 µM. `C[C@H]1C/C=C/[C@@H](O)[C@@H](O)CC/C=C/c2cc(O)cc(O)c2C(=O)O1` [aigialomycin D]: the “IC50 against P. falciparum line K1” value in data set [1] is 6.6 µg/mL (≈ 19.7 µM).
